The values that follow come from PMC12021911, “Comparative evaluation of antimicrobial peptides: effect on formation, metabolic activity and viability of Klebsiella pneumoniae biofilms” (Frontiers in Microbiology, 2025).

Holding throughout (assay type): cell-based, Klebsiella pneumoniae
For experiment [1], the system named is K. pneumoniae IMT40061. Kind of experiment: fluorescence assay on mature biofilms (SYTO 9 / propidium iodide). The settings on record: 24 h treatment of mature biofilm; at very high concentrations. On the procedure: (§1) The proportion of living and dead bacteria was determined using the fluorescence assay FilmTracer™ LIVE/DEAD biofilm viability kit (L10316, Life Technologies GmbH, Darmstadt, Germany). A bacterial count of 2 × 10^7 CFU/mL was inoculated in 50% BHI broth, 100 μL were added to a 96-well plate in duplicate and plates were incubated for 22 h at 37°C. Wells containing only BHI broth were used as blank. After incubation, the supernatant was discarded and plates were washed three times with sterile PBS. […] After incubation for 24 h at 37°C and washing three times with sterile PBS, 50 μL filter-sterilized water containing 0.15 μL each of SYTO™ 9 stain and propidium iodide stain was added to each well. Plates were incubated for 20 min at room temperature in the dark. The staining solution was discarded and the plates were washed three times with sterile PBS. The fluorescence intensity of the SYTO™ 9 stain (λex = 470 nm, λem = 500 nm) and the propidium iodide stain (λex = 490 nm, λem = 635 nm) were measured on a BioTek Synergy H1 microplate reader and corrected for the blank values. The percentage of fluorescence intensity was calculated based on the negative control. The SYTO™ 9/propidium iodide ratio was calculated. The experiment was conducted at least three times.

Experiment [2] concerns K. pneumoniae 42KC-108224-1. The description is as above. On the procedure:
as §1

In experiment [3] the test system is K. pneumoniae 17349. Described as above. The settings on record: 24 h treatment of mature biofilm; concentration not given.
Experiment [4] has as its system K. pneumoniae IMT40061. Briefly: crystal violet assay, biofilm formation upon AMP treatment. The settings on record: 16 μg/mL; 22 h, 37°C, 50% BHI; mean, n ≥ 3. On the procedure:
(§2) To quantify biofilm formation, the crystal violet assay was done as described previously ([Sager et al., 2015]). Specifically, bacteria were grown in 10 mL BHI broth for 18 h at 37°C on a shaking platform (120 rpm). Subsequently 100 μL of a 1:100 dilution of this overnight culture in BHI was transferred to 96-well plates and incubated for 24 h at 37°C. Wells with BHI broth only were used as blank. Five replicates were investigated per strain. After incubation the suspension was discarded, plates were washed three times with tap water and air-dried. Subsequently, 100 μL of 1% crystal violet (T123.1, Th. Geyer GmbH & Co. KG, Renningen, Germany) in distilled water was added to each well and incubated for 15 min at room temperature before rinsing the plates four times with tap water and air-drying them again. One hundred μL of 99% ethanol were added to each well for 15 min at room temperature to dissolve the remaining crystal violet. Subsequently, the optical density at 540 nm (OD540) was measured using the BioTek Synergy H1 microplate reader to quantify biofilm mass remaining in the wells. OD values of the blank were subtracted from all the samples. Each experiment was conducted three times.
(§3) To determine the effect of the AMPs on biofilm formation of K. pneumoniae, a standardized bacterial suspension and serial dilutions of antimicrobial agents were incubated together as conducted for determination of planktonic growth. After incubation the crystal violet assay was performed as described above. The percentage of biofilm formation was calculated based on the growth control. The experiment was conducted at least three times.

The subject of experiment [5] is K. pneumoniae 42KC-108224-1. The experiment is described as above. To be noted: 16 μg/mL; 22 h, 37°C, 50% BHI; mean, n ≥ 3. On the procedure:
as §2, §3

Take `CC[C@H]1OC(=O)[C@H](C)[C@@H](O[C@H]2C[C@@](C)(OC)[C@@H](O)[C@H](C)O2)[C@H](C)[C@@H](O[C@@H]2O[C@H](C)C[C@H](N(C)C)[C@H]2O)[C@](C)(O)C[C@@H](C)C(=O)[C@H](C)[C@@H](O)[C@]1(C)O` [Erythromycin]: the “living biofilm mass (SYTO™ 9)” value in experiment [1] stood at 69%. In addition, the “fluorescence intensity of propidium iodide in percent (dead cells)” value in experiment [2] (64 μg/mL in PBS, 24 h on 22 h-old biofilm, mean, n ≥ 3) is given as 64%.
For “VRLIVAVRIWRR-NH2 [compound 1018, Synthetic antimicrobial peptide]”, the “viable biofilm mass (SYTO™ 9)” value is recorded as “less than 30%” in experiment [3] and “less than 30%” in experiment [2] (24 h treatment of mature biofilm, strongest reduction, concentration not given). Also, the “biofilm mass (crystal violet), percentage of the growth control” value is reported as 61% in experiment [4] and 54% in experiment [5].
